# Reference: patent publication US20090099218A1, “SYNTHESIS OF NOVEL TUBULIN POLYMERIZATION INHIBITORS: BENZOYLPHENYLUREA (BPU) SULFUR ANALOGS” (priority 2007, published 2009)
# pIC50: −log10 of the molar value.
# Assays:
# tubulin = assay: Inhibition of tubulin polymerization; type: biochemical; details: for pIC50: Tubulin was at 10 μM, read-out: tubulin IC50 ± SD (inhibition of tubulin polymerization)
# Procedure: Briefly, tubulin polymerization was followed turbidimetrically at 350 nm in Beckman model DU7400 and DU7500 recording spectrophotometers equipped with electronic temperature controllers. […] Samples were pre-incubated for 15 min at 30° C. and chilled on ice. GTP (final concentration, 0.4 mmol/L) was added to each reaction mixture, and these were placed in cuvettes held at 0° C. Baselines were established, the temperature was raised to 30° C.
# LAPC-4 = assay: MTT growth inhibition, prostate cancer cell line LAPC-4; type: cell-based, human; details: for pIC50: Homo sapiens, LAPC4, MTT assay, average of three independent experiments
# Procedure: (§1) This MTT assay was carried using human prostate cancer cell lines CWR22R, LAPC-4 and LnCap using Promega cell titer 96 nonradioactive cell proliferation kits. Cells were trypsinized and centrifuged at 1000 rpm for 5 minutes and the supernatant was aspirated. Cells were resuspended with HBSS to a concentration of 10^6/ml. Cell suspension was diluted in serum containing medium to plate 2000 cells/well/0.2 ml. Cell suspension was transferred to sterile solution basin. Cells were plated using multichannel pipette set at 200 μl and incubated overnight for attachment. One plate was prepared for day 0 MTT assay as follows: 100 μl of media was removed from each well using multichannel pipette and 15 μl of MTT reagent was added. Plates were incubated at 37° C. for 4 hrs. […] of STOP solution was added to each well and incubated at room temperature for 1 hour. Absorbance was measured at 570 and 650 nm on plate reader. All the media from the remaining plates were carefully removed and the cells were treated with the media containing drug. MTT assays were done on days 0, 3, 5 and 7. In the preliminary screening […] BPU sulfur analogs 6l, 6h, 6n, 7d and 8h were screened and their activity was compared with compound 1.
# (§2) Compounds with significant inhibitory activity in pancreatic cancer cells were further evaluated against prostate cancer cell lines in the MTT assay, (Mosmann, T., J. Immunol. Methods 65:55-63 (1983)) and the results were compared to those for compound 1 (Table 3).
# [1] = tested on: prostate cancer cell lines CWR22R, LAPC-4 and LnCap; assay: MTT growth inhibition, prostate cancer cell line panel; type: cell-based, human; details: for potency relative to compound 1, prostate cell lines (preliminary screening): CWR22R, LAPC-4, LnCap
# Procedure: as §1
# LnCaP = assay: MTT growth inhibition, prostate cancer cell line LnCaP; type: cell-based, human; details: for pIC50: Homo sapiens, LNCaP, MTT assay, average of three independent experiments
# Procedure: as §1, §2
# CWR22R = assay: MTT growth inhibition, prostate cancer cell line CWR22R; type: cell-based, human; details: for pIC50: Homo sapiens, 22Rv1, MTT assay, average of three independent experiments
# ASPC1 = assay: MTT growth inhibition, pancreatic cell line ASPC1; type: cell-based; details: Homo sapiens, ASPC1; MTT assay, 96 h treatment; average of three independent experiments
# Procedure: (§3) Eight of these analogs 6d, 6h, 6n, 6g, 7b, 7d, 8g, and 8h were tested for their cytotoxicity in seven pancreatic cell lines ASPC1, Panc1, Panc203, Panc430, Pane 1005, MiaPaca2, and HS766T using MTT assay. Cells were trypsinized, seeded at 5×10^3 cells/well in 96-well plate and allowed to grow for 24 hours before the treatment with exponential increasing concentrations of drugs in the presence of 10% FBS. After a 96-hours period of treatment, 20 μl of MTT solution (5 mg/ml in PBS) were added to each well, and the plates were then incubated for 3 hours at 37° C. Medium was then replaced with 100 μl of DMSO per well. Plates were shaken and the optical density was measured at 570 nm using a multiwell plate reader (Bio-Rad, Model 550, Bio-Rad Inc., Hercules, Calif.). Each experiment was performed in triplicate for each drug concentration and was carried out independently at least 3 times. The IC50 value was defined as the concentration needed for a 50% reduction in the absorbance calculated based on the survival curves. Response to drug treatment was assessed by standardizing treatment groups to untreated controls. Compounds activity was compared with compound 1.
# (§4) Table 2 (Growth Inhibition of Pancreatic Cancer Cell Lines by BPU and BPTU Analogues (IC50) a) compares the cytotoxicity of a series of new derivatives against a panel of seven pancreatic cancer cell lines, as determined by MTT assay. See, Mosmann, T., J. Immunol. Methods 65:55-63 (1983).
# Panc1005 = assay: MTT growth inhibition, pancreatic cell line Panc1005; type: cell-based; details: Homo sapiens, Panc1005; MTT assay, 96 h treatment; average of three independent experiments
# Procedure: as §3, §4
# Panc1 = assay: MTT growth inhibition, pancreatic cell line Panc1; type: cell-based; details: for pIC50: Homo sapiens, PANC-1, MTT assay, 96 h treatment, average of three independent experiments
# Procedure: as §3, §4
# [2] = In vivo dose-finding study; details: for toxicity: 20 mg/kg and 30 mg/kg twice per week i.p., 4 weeks, six mice; for remaining animals that lost >15% of their weight: 50 mg/kg thrice per week i.p.; for mice that died in the 3rd week: mouse, in vivo
# Procedure: Both compounds were explored by the i.p. route in cohorts of six mice each, with a duration of treatment of 4 weeks. […] Therefore, 50 mg/kg twice per week was explored. […] Therefore, the dose was escalated to 50 mg/kg thrice per week. In the 6n and 7d groups, respectively, two and one of the mice died in the 3rd week, and three of four and four of five of the remaining animals lost >15% of their weight. Thus, for 28-day efficacy studies following an i.p. route, we selected 50 mg/kg twice a week for both compounds.
Compound,potency as inhibitor of tubulin assembly relative to 7d (tubulin),pIC50 (tubulin),pIC50 (LAPC-4),"potency relative to compound 1, prostate cell lines (preliminary screening) [1] [times]","pIC50 ([1]; Homo sapiens, all prostate cell lines, read-out: IC50 against all prostate cell lines)",pIC50 (LnCaP),increase in potency over 6m (LnCaP; LnCap) [fold],increase in potency over 6m (CWR22R; CWR22R) [fold],pIC50 (CWR22R),pIC50 (ASPC1),pIC50 (Panc1005),pIC50 (Panc1),increase in potency over 6m (Panc1; Panc1) [fold],toxicity [2],remaining animals that lost >15% of their weight [2],mice with a weight loss of 15% by the 4th week ([2]; 50 mg/kg twice per week i.p.),mice that died in the 3rd week [2],increase in activity compared to 7c (LAPC-4; LAPC-4) [fold],increase in activity compared to 7c (Panc1; Panc1) [fold]
"O=C(NC(=O)c1ccccc1[N+](=O)[O-])Nc1ccc(Sc2ncc(Br)cn2)cc1 [Compound 6n, 1-[4-(5-Bromopyrimidin-2-ylsulfanyl)phenyl]-3-(2-nitrobenzoyl)-urea]",twice as potent,5.68,7.30,20,7.30,7.30,20,100,7.30,6.00,5.00,7.07,8,not associated with noticeable toxicity,three of four,One of six,two,,
Nc1ccccc1C(=O)NC(=O)Nc1ccc(Sc2ncc(Br)cn2)cc1 [Compound 7d],,< 4.40,7.00,20,,6.30,,,6.30,6.35,5.00,7.05,,not associated with noticeable toxicity,four of five,,one,7,39
